Experimental data from patent US7381749B2, “Sulfonamides as inhibitors of histone deacetylase for the treatment of disease” (Kalypsys, Inc., priority 2004, dated 2008).

Assays:
HDAC = assay: In vitro HDAC-inhibition assay (Fluor de Lys fluorescent substrate); assay type: biochemical; details: HDAC enzyme source (e.g. partially purified nuclear extract or immunopurified HDAC complexes)
Experimental: In vitro HDAC-Inhibition Assay:
This assay measures a compound's ability to inhibit acetyl-lysine deacetylation in vitro and was used as both a primary screening method as well as for IC50 determinations of confirmed inhibitors. The assay is performed in vitro using an HDAC enzyme source (e.g. partially purified nuclear extract or immunopurified HDAC complexes) and a proprietary fluorescent substrate/developer system (HDAC Quantizyme Fluor de Lys Fluorescent Activity Assay, BIOMOL). The assay is run in 1,536-well Greiner white-bottom plates using the following volumes and order of addition: • Step 1: Enzyme (2.5 ul) source added to plate (from refrigerated container) • Step 2: Compounds (50 nl) added with pin transfer device • Step 3: Fluor de Lys (2.5 ul) substrate added, incubate at RT, 30 minutes • Step 4: Developer (5 ul) solution is added (containing TSA), to stop reaction • Step 5: Plate Reader—data collection • The deacetylated fluorophore is excited with 360 nm light and the emitted light (460 nm) is detected on an automated fluorometric plate reader (Aquest, Molecular Devices).

HDAC in cells = assay: Cellular IC50 (cellular assays: histone hyperacetylation cytoblot / differential cytotoxicity); assay type: cell-based; details: transformed cell lines (e.g. HeLa, A549, MCF-7); cell line not specified
Experimental: These two secondary assays evaluates a compound's ability to inhibit HDAC in cells by measuring cellular histone acetylation levels. The cytoblot facilitates quantitative EC50 information for cellular HDAC inhibition. Transformed cell lines (e.g. HeLa, A549, MCF-7) are cultured under standard media and culture conditions prior to plating.
Cells (approx. 2,500/well) are allowed to adhere 10-24 hours to wells of a 384-well Greiner PS assay plate in media containing 1-5% serum. Cells are treated with appropriate compound and specific concentrations for 0 to 24 hours. Cells are washed once with PBS (60 ul) and then fixed (95% ethanol, 5% acetic acid or 2% PFA) for 1 minute at RT (30 ul). Cells are blocked with 1% BSA for 1 hour and washed and stained with antibody (e.g. anti-Acetylated Histone H3, Upstate Biotechnology), followed by washing and incubation with an appropriate secondary antibody conjugated to HRP or fluorophore. For luminescence assays, signal is generated using Luminol substrate (Santa Cruz Biotechnology) and detected using an Aquest plate reader (Molecular Devices).
Differential Cytotoxicity Assay:
HDAC inhibitors display differential cytotoxicity toward certain transformed cell lines. Cells are cultured according to standard ATCC recommended conditions that are appropriate to each cell type. Compounds were tested for their ability to kill different cell types (normal and transformed) using the ATPlite luminescence ATP detection assay system (Perkin Elmer). Assays are run in either 384-well or 1536-well Greiner PS plates. Cells (30 ul or 5 ul, respectively) are dispensed using either multichannel pipette for 384-well plates, or proprietary Kalypsys bulk liquid dispenser for 1536-well plates. Compounds added using proprietary pin-transfer device (500 nL or 5 nL) and incubated 5 to 30 hours prior to analysis. Luminescence is measured using Aquest plate reader (Molecular Devices).

Row | IC50 (HDAC) [µM] | SMILES | IC50 (HDAC in cells) [µM]
1 | < 1 | NCC(=O)SCC(=O)c1ccc(NS(=O)(=O)c2ccc(OC(F)(F)F)cc2)cc1 [Example 11, Amino-thioacetic acid S-{2-oxo-2-[4-(4-trifluoromethoxy-benzenesulfonylamino)-phenyl]-ethyl}ester] | –
2 | < 1 | CC(=O)SCC(=O)c1ccc(NS(=O)(=O)c2cccc(Cl)c2)cc1 [Example 37] | < 1
3 | < 1 | O=C(CSC(=O)c1ccco1)c1ccc(NS(=O)(=O)c2ccc(OC(F)(F)F)cc2)cc1 [Example 04, Furan-2-carbothioic acid S-{2-oxo-2-[4-(4-trifluoromethoxy-benzenesulfonylamino)-phenyl]-ethyl}ester] | –
4 | < 1 | CC(=O)SCC(=O)c1ccc(NS(=O)(=O)c2cccc(OC(F)(F)F)c2)cc1 [Example 41] | < 1
5 | < 1 | CC(=O)SCC(=O)c1ccc(NS(=O)(=O)c2ccccc2Cl)cc1 [Example 38] | < 1
6 | < 1 | CC(=O)SCC(=O)c1ccc(NS(=O)(=O)c2ccc(OC(F)(F)F)cc2)cc1Cl [Example 14, Thioacetic acid S-{2-[2-chloro-4-(4-trifluoromethoxy-benzenesulfonylamino)-phenyl]-2-oxo-ethyl}ester] | < 50
7 | < 1 | CC(=O)SCC(=O)c1ccc(NS(=O)(=O)c2ccccc2)cc1 [Example 33] | < 10
8 | < 1 | CC(=O)SCC(=O)c1ccc(NS(=O)(=O)c2cn(C)c(C)n2)cc1 [Example 24, Thioacetic acid S-{2-[4-(1,2-dimethyl-1H-imidazole-4-sulfonylamino)-phenyl]-2-oxo-ethyl}ester] | < 10
9 | – | O=C(CSC(=O)c1cccnc1)c1ccc(NS(=O)(=O)c2ccc(OC(F)(F)F)cc2)cc1 [Example 02, Thionicotinic acid S-{2-oxo-2-[4-(4-trifluorometlioxy-benzenesulfonylamino)-phenyl]-ethyl}ester] | < 10
10 | < 50 | CC(=O)SCC(=O)c1sc(NS(=O)(=O)c2ccc(OC(F)(F)F)cc2)nc1C [Example 42] | –
11 | < 50 | CC(=O)SCC(=O)c1sc(NS(=O)(=O)c2ccc(Cl)c(Cl)c2)nc1C [Example 43, Thioacetic acid-S-{2-[2-(3,4-Dichlorobenzenesulfonylamino)-4-methyl-thiazol-5-yl]-2-oxo-ethyl}-ester] | –
12 | – | CC(=O)SCC(=O)c1ccc(NS(=O)(=O)c2cc(C)oc2C)cc1 [Example 31] | < 10
13 | – | CC(=O)SCC(=O)c1ccc(S(=O)(=O)Nc2ccc(OC(F)(F)F)cc2)cc1 [Example 45, Thioacetic acid S-{2-oxo-2-[4-(4-trifluoromethoxy-phenylsulfamoyl)-phenyl]-ethyl}ester] | < 10
14 | – | CC(=O)SCC(=O)c1ccc(N(C)S(=O)(=O)c2ccc(OC(F)(F)F)cc2)cc1 [Example 12, Thioacetic acid S-(2-{4-[methyl-(4-trifluoromethoxy-benzenesulfonyl)-amino]phenyl}-2-oxo-ethyl)ester] | < 10
15 | < 10 | CC(=O)SCC(=O)c1ccc(N(C(C)C)S(=O)(=O)c2ccc(OC(F)(F)F)cc2)cc1 [Example 13, Thioacetic acid S-(2-{4-[isopropyl-(4-trifluoromethoxy-benzenesulfonyl)-amino]-phenyl}-2-oxo-ethyl)ester] | –
16 | < 1 | CC(=O)SCC(=O)c1ccc(NS(=O)(=O)c2ccc(OC(F)(F)F)cc2)c(F)c1 [Example 15, Thioacetic acid S-{2-[3-fluoro-4-(4-trifluoromethoxy-benzenesulfonylamino)-phenyl]-2-oxo-ethyl}ester] | –
17 | – | CC(=O)Oc1ccccc1C(=O)SCC(=O)c1ccc(NS(=O)(=O)c2ccc(OC(F)(F)F)cc2)cc1 [Example 06, Acetic acid 2-{2-oxo-2-[4-(4-trifluoromethoxy-benzenesulfonylamino)-phenyl]-ethylsulfanylcarbonyl}-phenyl ester] | < 1
18 | < 1 | CC(=O)SCC(=O)c1ccc(NS(=O)(=O)C(C)C)cc1 [Example 25, Thioacetic acid S-{2-oxo-2-[4-(propane-2-sulfonylamino)-phenyl]-ethyl}ester] | –
